Assay results taken from publication PMC9619402 (Journal of Medicinal Chemistry, 2022).
Values after ≈ are worked out from the molar mass of the structure shown. Like-named read-outs stand apart in the source and are kept apart here. Marks after values point to notes of the source that are not given here.

Columns and labels:
[1] = test system: 468 kinases (scanMax panel); experiment: Eurofins/DiscoverX scanMax panel (KINOMEscan) kinome profile; assay type: binding; conditions: fraction of kinases bound >50%
[2] = target: PAK pLIMK2 (PAK-phosphorylated LIMK2) (Homo sapiens, UniProt P53671); assay type: biochemical; conditions: 6 nM LIMK2 + 0.2 nM PAK1 kinase domain; mean ± SEM
[3] = target: PAK pLIMK1 (PAK-phosphorylated LIMK1) (Homo sapiens, UniProt P53667); experiment: RapidFire mass spectrometry kinase assay, PAK-phosphorylated LIMK1; conditions: 5 nM LIMK1 + 0.4 nM PAK1 kinase domain; mean ± SEM
[4] = test system: p-cofilin levels in SH-SY5Y cells; experiment: cells; conditions: Homo sapiens, 2 h, read-out: AlphaLISA pIC50 p-cofilin (converted)
Protocol: SH-SY5Y cells were plated into a 96-well plate at 20,000 cells/well. The next day, compounds were prepared in an 8-point, 3-fold serial dilution in DMSO and then further diluted to 20-fold in DMEM/F12 with 10% FBS, 1% antibiotics. SH-SY5Y cell media was replaced with fresh DMEM/F12 media containing 10% FBS and 1% antibiotics. Compounds were added to the SH-SY5Y cells in duplicate at a final compound concentration of 10 μM to 3 nM. LIMKi3 (10 μM) was used as a positive control and 0.5% DMSO was used as a negative control. Cells were placed in the incubator for 2 h, after which the media was removed, and the cells were lysed using 50 μL of AlphaLISA 1× lysis buffer (Perkin Elmer) containing protease inhibitor cocktail (Sigma-Aldrich, Dorset, U.K.) and Pierce phosphatase inhibitor cocktail (Thermofisher, U.K.). Cells were placed on a plate shaker at 350 rpm at RT. Ten microliters of total cell lysate was then transferred to a clean, flat-bottom, white 384-well plate. An acceptor bead solution was made consisting of reaction buffer 1, reaction buffer 2, activation buffer, and acceptor beads from the p-Cofilin SureFire Ultra assay kit (Perkin Elmer, Cat# ALSU-PCOF-A500). To each well in the assay, 5 μL of the acceptor mix was added to the wells under dim light; the plate was placed on a plate shaker for 2 min at 450 rpm, centrifuged briefly, and the plate was incubated at RT for 1 h. A donor solution, consisting of dilution buffer and donor beads, was added at 5 μL/well, mixed on a plate shaker, centrifuged briefly, and incubated at RT for 1 h. Finally, the plate was read on a Pherastar reader (BMG Labtech Ltd., Aylesbury, U.K.) using an AlphaLISA cartridge and AlphaLISA plate settings.

[5] = target: LIMK1 (LIMK1_330–637, kinase catalytic domain) (Homo sapiens, UniProt P53667); conditions: for preference between LIMK1 and LIMK2: RapidFire, LIMK1 versus LIMK2, at best
[6] = target: LIMK2 (LIMK2_347–659, kinase catalytic domain) (Homo sapiens, UniProt P53671); assay type: biochemical
[7] = target: T1, LIMK2 (NanoLuc LIMK2 kinase fusion) (Homo sapiens, UniProt P53671); assay type: cell-based; conditions: HEK293 cells, 2 h; mean ± SEM
T1 construct: host or cells: HEK293
Protocol: (§1) HEK293 cells were resuspended in growth media following routine trypsinization, neutralization, and sedimentation techniques. Cell density was adjusted to 1 ×10^5 cells/mL for each transfection in a total of 25 mL media. The transfection mix was added directly to the cells and mixed gently by inversion. The cells were then plated into T-75 tissue culture flasks and incubated for 20 h.
(§2) Kit components were purchased from Promega (Hampshire, U.K.). […] NanoBRET Tracer #10 (27.5 μL) was diluted in 192.5 μL of DMSO for use as a positive control, which was further diluted with 880 μL of tracer dilution buffer. For negative control, 20 μL of DMSO was added to 80 μL of tracer dilution buffer. LIMK1/2-transfected HEK293 cells were trypsinized, centrifuged, and resuspended in 10 mL of Opti-MEM. Extracellular NanoLuc inhibitor was added at 1:10,000 dilution to the cells, after which 85 μL of cells/well were plated into flat-bottomed, white, 96-well plates. For positive control wells, 5 μL of NanoBRET Tracer #10 was added to wells without compound. For negative controls, the DMSO/tracer dilution buffer solution was added to wells without compound. For test compounds, 10 μL of diluted compounds from the intermediate plate were added in duplicate or DMSO (for control wells) at a final concentration of 0.5% DMSO in Opti-MEM. Plates were incubated at 37 °C and 5% CO2 for 2 h. […] A solution of Nano-Glo substrate was made consisting of 72 μL of Nano-Glo substrate and 11.93 mL of Opti-MEM (without phenol red) and mixed gently by inversion 5–10 times.

[8] = target: T2, LIMK1 (NanoLuc LIMK1 kinase fusion) (Homo sapiens, UniProt P53667); assay type: cell-based; conditions: HEK293 cells, 2 h; mean ± SEM
T2 construct: host or cells: HEK293
Protocol: as §1, §2

[9] = Caco-2 permeability; assay type: in vitro ADME; conditions: for efflux ratio: Caco-2, Table S1
[10] = In vivo DMPK, IV dosing; conditions: male, Sprague-Dawley, rat
Protocol: In vivo studies were carried out under appropriate licenses at Pharmidex (U.K.), Sygnature Discovery (U.K.), or Sai Life (India) using male Sprague-Dawley rats. […] Serial plasma samples were obtained at predetermined time points and then stored at −20 °C. Samples were then thawed, protein-precipitated with acetonitrile followed by LCMS/MS quantification.

[11] = Microsomal stability, human microsomes; conditions: pH 7.4
Protocol: (§3) After mixing thoroughly, the T = 0 sample (40 μL) was immediately quenched into an 80 μL ice-cold methanol containing a 4 μM internal standard (carbamazepine). Three further samples were quenched in the same way at T = 3, 9, and 30 min. Samples were incubated on ice for 30 min before centrifugation at 4700 rpm for 20 min. The supernatant was analyzed via LCMS/MS, and compound/carbamazepine peak area ratios were calculated to determine the rate of substrate depletion.

[12] = Thermodynamic solubility; assay type: physicochemical; conditions: pH 7, PBS, 24 h room temperature; average of two experiments; read-out: aq. solubility
Protocol: The samples were then centrifuged at >10,000 rpm for 10 min to pellet any remaining solid. […] To prepare the standard, an 8-point, 1:3 dilution curve was prepared in DMSO with a top concentration of 1 mM, which was then diluted to 1:100 in acetonitrile containing 2 μM of carbamazepine. Standards and samples were analyzed via LCMS/MS. The compound carbamazepine peak area ratios were calculated, and the test article solubility was determined by interpolation from the standard curve.

[13] = Microsomal stability, rat microsomes; conditions: pH 7.4
Protocol: as §3

[14] = 40 nM LIMK1 catalytic domain, 4 μM CFL1, 2 mM ATP, mean ± SEM, at least three experiments unless footnoted, pIC50 greater than 7.7 treat with caution
[15] = 15 nM LIMK2 catalytic domain, 4 μM CFL1, 2 mM ATP, mean ± SEM, pIC50 greater than 8.1 treat with caution

T2 sequence (P53667 whole entry, the tested form may be a part): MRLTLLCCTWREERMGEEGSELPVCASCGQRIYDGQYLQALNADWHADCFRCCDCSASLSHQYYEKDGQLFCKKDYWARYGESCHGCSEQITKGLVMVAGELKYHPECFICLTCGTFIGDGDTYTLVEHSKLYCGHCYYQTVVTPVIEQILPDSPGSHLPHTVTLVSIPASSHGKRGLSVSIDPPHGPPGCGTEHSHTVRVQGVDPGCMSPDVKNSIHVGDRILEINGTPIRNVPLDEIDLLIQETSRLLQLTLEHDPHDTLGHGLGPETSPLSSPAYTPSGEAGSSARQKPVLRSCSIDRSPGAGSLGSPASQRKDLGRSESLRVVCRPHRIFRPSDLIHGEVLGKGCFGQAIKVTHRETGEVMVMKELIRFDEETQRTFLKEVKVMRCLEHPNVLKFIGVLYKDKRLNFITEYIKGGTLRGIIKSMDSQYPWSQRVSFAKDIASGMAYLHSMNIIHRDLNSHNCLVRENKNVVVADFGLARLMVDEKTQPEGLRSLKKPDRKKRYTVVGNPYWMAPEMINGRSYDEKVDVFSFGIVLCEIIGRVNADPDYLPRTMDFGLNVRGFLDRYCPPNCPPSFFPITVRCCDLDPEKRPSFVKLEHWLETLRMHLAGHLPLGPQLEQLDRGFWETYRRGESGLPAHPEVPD
Sequence of LIMK1 (LIMK1_330–637, kinase catalytic domain) (P53667 330-637): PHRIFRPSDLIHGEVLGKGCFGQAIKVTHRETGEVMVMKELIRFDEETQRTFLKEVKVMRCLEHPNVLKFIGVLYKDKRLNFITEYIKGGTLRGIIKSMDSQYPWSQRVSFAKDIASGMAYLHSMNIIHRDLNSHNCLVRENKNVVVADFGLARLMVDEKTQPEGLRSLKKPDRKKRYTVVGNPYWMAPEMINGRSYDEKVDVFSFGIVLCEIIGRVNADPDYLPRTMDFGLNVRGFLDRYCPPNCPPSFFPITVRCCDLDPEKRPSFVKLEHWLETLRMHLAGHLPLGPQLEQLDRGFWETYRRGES
Sequence of PAK pLIMK1 (PAK-phosphorylated LIMK1) (P53667 330-637): as above
Sequence of LIMK2 (LIMK2_347–659, kinase catalytic domain) (P53671 326-638 limits assumed): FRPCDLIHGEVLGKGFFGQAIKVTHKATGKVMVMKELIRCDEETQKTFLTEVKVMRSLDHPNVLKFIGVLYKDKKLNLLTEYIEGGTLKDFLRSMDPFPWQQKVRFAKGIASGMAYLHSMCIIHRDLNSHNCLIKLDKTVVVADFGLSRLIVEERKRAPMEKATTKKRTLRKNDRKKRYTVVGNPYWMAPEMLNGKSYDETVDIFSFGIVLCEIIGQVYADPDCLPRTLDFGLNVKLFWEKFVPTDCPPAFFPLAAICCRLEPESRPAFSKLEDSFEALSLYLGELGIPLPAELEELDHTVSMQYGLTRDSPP
Sequence of PAK pLIMK2 (PAK-phosphorylated LIMK2) (P53671 326-638 limits assumed): as above
T1 sequence (P53671 whole entry, the tested form may be a part): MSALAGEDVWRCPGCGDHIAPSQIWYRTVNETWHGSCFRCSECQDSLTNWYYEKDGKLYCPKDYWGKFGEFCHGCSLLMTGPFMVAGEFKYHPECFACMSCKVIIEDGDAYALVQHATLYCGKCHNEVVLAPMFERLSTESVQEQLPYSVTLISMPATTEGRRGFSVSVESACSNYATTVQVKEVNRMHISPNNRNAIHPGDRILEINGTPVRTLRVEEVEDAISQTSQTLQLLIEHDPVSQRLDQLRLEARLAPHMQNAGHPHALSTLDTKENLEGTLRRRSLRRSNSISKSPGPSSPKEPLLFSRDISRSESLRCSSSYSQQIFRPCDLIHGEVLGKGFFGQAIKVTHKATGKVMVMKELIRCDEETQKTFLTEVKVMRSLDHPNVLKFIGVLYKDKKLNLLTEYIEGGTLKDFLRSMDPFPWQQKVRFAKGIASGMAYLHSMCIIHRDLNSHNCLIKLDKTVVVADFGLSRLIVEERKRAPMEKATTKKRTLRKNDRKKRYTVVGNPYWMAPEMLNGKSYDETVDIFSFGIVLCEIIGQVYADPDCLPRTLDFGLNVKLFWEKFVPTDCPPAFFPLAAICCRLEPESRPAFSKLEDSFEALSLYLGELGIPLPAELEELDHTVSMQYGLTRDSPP

Structure (SMILES) | RapidFire pIC50 PAK pLIMK2 [2] | RapidFire pIC50 PAK pLIMK1 [3] | IC50 [4] | RapidFire pIC50 LIMK1 [5, 14] | RapidFire pIC50 LIMK2 [6, 15] | NanoBRET pIC50 LIMK2 [7] | NanoBRET pIC50 LIMK1 [8] | further results
CCn1c(=O)c(-c2ccc(Cl)cc2Cl)cc2cnc(Nc3ccc(N4CCNCC4)c(F)c3)nc21 [Compound 1] | – | – | – | – | – | – | – | kinome S50 ([1]; 1000 nM): 0.54 (468, 1000 nM)
O=C(Nc1ncc(-c2cc(C(F)F)nn2-c2c(Cl)cccc2Cl)s1)C1CC1 [Compound 2] | 6.56 ± 0.06 | 7.00 ± 0.03 | 39.8 nM | 7.75 ± 0.04 | 7.52 ± 0.04 | 7.79 ± 0.02 | 7.09 ± 0.08 | –
CCNC(=O)Nc1ncc(-c2cc(-c3c(C)cc(OC)cc3C)nc(-c3cnccn3)n2)s1 [Compound 3] | 6.15 ± 0.04 | 5.64 ± 0.06 | 457 nM | 7.25 ± 0.06 | 6.87 ± 0.10 | 6.33 ± 0.12 | 6.45 ± 0.14 | –
CC(C)C(=O)Nc1ncc(-c2cc(C(F)F)nn2-c2c(Cl)cccc2Cl)s1 [Compound 4] | – | – | – | – | – | – | – | Papp A→B ([9]; human, Caco-2, A – B): 8.8 ×10⁻⁶ cm/s; Papp B→A ([9]; human, Caco-2, B – A): 12.4 ×10⁻⁶ cm/s; Vd [10]: 2 L/kg; half-life ([10]; 0.2 mg/kg): 1.1 h
Cc1c[nH]c2ncnc(N3CCN(C(=O)Nc4cccc(OC(=O)N(C)C)c4)[C@@H](C)C3)c12 [Compound 6] | 7.68 ± 0.07 | 7.68 ± 0.04 | 3.02 nM | – | – | 8.61 ± 0.04 | 8.28 ± 0.08 | RapidFire pIC50 LIMK1 [5]: 8.70 ± 0.07; RapidFire pIC50 LIMK2 [6]: 8.74 ± 0.12
Cc1c[nH]c2ncnc(N3CCC(CN)(C(=O)Nc4cccc(OC(=O)N(C)C)c4)CC3)c12 [Compound 7] | 6.51 ± 0.04 | – | – | – | – | 8.17 ^d | – | microsomal CLint at 0.5 h, 4 µM [11]: 3 µL/min/mg; solubility at 24 h [12]: 451 µM (≈ 204 µg/mL); kinome S50 ([1]; 300 nM): 0.13 (468, 300 nM); Vd [10]: 6.4 L/kg; clearance [10]: 98.1 mL/min/kg; half-life ([10]; 0.5 mg/kg): 1.3 h; microsomal CLint at 0.5 h, 4 µM [13]: 50 µL/min/mg
Cc1c[nH]c2ncnc(-c3ccc(NC(=O)N(CCO)c4ccccc4)cc3)c12 [Compound 8] | – | – | – | – | – | – | – | microsomal CLint at 0.5 h, 4 µM [11]: 8 µL/min/mg; solubility at 24 h [12]: 28 µM (≈ 10.8 µg/mL); clearance [10]: 4.2 mL/min/kg; half-life [10]: 2.2 h; Vd ([10]; 1 mg/kg): 0.5 L/kg; microsomal CLint at 0.5 h, 4 µM [13]: 18 µL/min/mg
CCc1cccc(CC)c1NC(=O)N1Cc2n[nH]c(NC(=O)c3ccc(N4CCN(C)CC4)cc3)c2C1 [Compound 11] | <5 | 6.24 ± 0.04 | > 10000 nM | 6.39 ± 0.03 | 5.10 ± 0.04 | <5 | <5 | preference between LIMK1 and LIMK2 [5]: ~10 fold; efflux ratio [9]: high efflux; efflux ratio ([9]; human, read-out: Efflux ratio): 279
Cc1cc(Nc2nc(N[C@@H](C)c3ccc(F)cc3)c(C#N)cc2F)n[nH]1 [Compound 12] | 5.18 ± 0.03 | 6.52 ± 0.01 | > 10000 nM | – | – | <5 | <5 | RapidFire pIC50 LIMK1 [5]: 6.82 ± 0.06; preference between LIMK1 and LIMK2 [5]: ~10 fold; RapidFire pIC50 LIMK2 [6]: 5.71 ± 0.14; efflux ratio ([9]; human, read-out: Efflux ratio): 1.01
Cc1cc(Nc2cc(CN3CCOCC3)c3nc(C)c(Cc4ccc(Cl)cc4F)n3n2)n[nH]1 [Compound 13, gandotinib] | 5.22 ± 0.05 | 5.98 ± 0.06 | > 10000 nM | 6.40 ± 0.03 | <5 | <5 | <5 | preference between LIMK1 and LIMK2 [5]: ~10 fold; efflux ratio [9]: high efflux; efflux ratio ([9]; human, read-out: Efflux ratio): 10.2
Cn1cc(-c2[nH]c3cc(NC(=O)[C@H](N)C4CCCCC4)cc4c3c2C=NNC4=O)cn1 [Compound 16] | 5.47 ± 0.04 | 6.76 ± 0.12 | > 10000 nM | 6.09 ± 0.07 | <5 | 6.56 ± 0.02 | 6.40 ± 0.04 | –
CN1C(=O)[C@@H](N2CCc3c(nn(Cc4ccccc4)c3C(N)=O)C2=O)COc2cc(Cl)ccc21 [Compound 17] | – | – | – | – | – | – | – | kinome S50 ([1]; 1000 nM): 0.01 (468, 1,000 nM)
